Laboratory results published in US20250092064A1, “BENZOTRIAZOLE COMPOUND” (DAIICHI SANKYO COMPANY, LIMITED, priority 2022, published 2025).

What was measured:
[1] = biological target: binding between Nrf2 and Keap1 (Homo sapiens (Human), UniProt Q14145); assay: FP assay (in vitro): inhibition of Nrf2-Keap1 binding by fluorescence polarization; details: GST-fused human Keap1 (325-642) 20 nM, FITC-labeled Nrf2 peptide 10 nM, 2 hr at room temperature
[2] = system: NQO1 activity in Hepa1c1c7 cells; assay: NAD(P)H: quinone oxidoreductase-1 (NQO1) enzyme induction assay (in vitro); assay type: cell-based, mouse; details: about 48 hr; for fold induction at 0.4 µM: Mus musculus, Hepa-1c1c7, NQO1 activity with 400 nM test compound as a ratio from the base without compound
Description: The NQO1 assay was performed based on a previous report (Methods in Enzymology 2004; 382: 243-258). Hepa1c1c7 cells (mouse hepatocyte cell line, ATCC, cat. no. CRL-2026) were cultured in D-MEM medium containing 10% FBS and 1% penicillin/streptomycin (5% CO2, 37° C.), and seeded into 96-well plates (Corning REF. 353072) at 1×10^4 cells/well. A portion of the wells were prepared with medium only for background measurement without seeding cells. The next day, 400 nM of the test compound (0.004% of the final concentration in DMSO) dissolved in DMSO was added thereto, and the wells were incubated for about 48 hr. A well without adding the test compound was prepared for base activity assay in part. […] After the medium was removed, 50 μL of the cell lysate was added and incubated at 37° C. for 10 minutes, followed by shaking at room temperature for 10 minutes. 200 μL of reaction solution was added thereto, and allowed to stand for 5 minutes at room temperature. 50 μL of the stop solution was added thereto, and absorbance was measured at 610 nm on a SpectraMax PLUS384 (Molecular devices) or […] Pharma Biomedical). The test results were analyzed in Excel, and the NQO1 activity upon addition of 400 nM of test compound was calculated as a ratio from the base without the compound. NQO1 activity ratio when test compound is added=(absorbance when test compound is added-absorbance of medium only)/(absorbance without addition of compound-absorbance of medium only) [numerical formula 2] The results of each test compound in this test are shown in the following Table 2 (A:5<NQO1 activity ratio, B:3<NQO1 activity ratio≤5).

Sequence of binding between Nrf2 and Keap1 (Q14145 325-624 limits assumed): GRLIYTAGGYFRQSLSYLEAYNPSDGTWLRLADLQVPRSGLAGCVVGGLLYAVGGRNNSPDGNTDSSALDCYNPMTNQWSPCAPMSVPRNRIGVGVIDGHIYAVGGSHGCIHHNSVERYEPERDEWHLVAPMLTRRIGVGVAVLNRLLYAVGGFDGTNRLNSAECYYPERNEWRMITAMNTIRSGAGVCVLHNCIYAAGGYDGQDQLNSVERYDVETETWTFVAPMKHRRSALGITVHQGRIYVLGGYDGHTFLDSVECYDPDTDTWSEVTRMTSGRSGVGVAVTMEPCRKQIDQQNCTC

SMILES | IC50 [1] [nM] | fold induction at 0.4 µM [2] | activity ratio ([2]; NQO1 activity with 400 nM test compound as a ratio from the base without compound)
CC[C@@H]1CN(Cc2cc([C@H](CC(=O)O)c3cc(C)c4c(nnn4C)c3C)cc3c2CCC3)[C@@H](C)c2ncccc2O1 [Example 69, (3S)-3-(7-{[(2R,5S)-2-Ethyl-5-methyl-2,3-dihydropyrido[2,3-f][1,4]oxazepin-4(5H)-yl]methyl}-2,3-dihydro-1H-inden-5-yl)-3-(1,4,7-trimethyl-1H-benzotriazol-5-yl)propanoic acid] | ≤ 10 | 3 to 5 | –
CC[C@@H]1CN(Cc2cc(C(CC(=O)O)c3ccc4c(nnn4C)c3C)cc3c2OCC3)S(=O)(=O)c2cc(Cl)cnc2O1 (stereo partly drawn) [Example 91, 3-(7-{[(4R)-8-Chloro-4-ethyl-1,1-dioxido-3,4-dihydro-2H-pyrido[2,3-b][1,4,5]oxathiazepin-2-yl]methyl}-2,3-dihydro-1-benzofuran-5-yl)-3-(1,4-dimethyl-1H-benzotriazol-5-yl)propanoic acid] | 10 to 30 | > 5 | –
CC[C@@H]1CN(Cc2cc(C(CC(=O)O)c3ccc4c(nnn4C)c3C)cc3c2CCC3)S(=O)(=O)c2cc(C(F)(F)F)cnc2O1 (stereo partly drawn) [Example 25, 3-(1,4-Dimethyl-1H-benzotriazol-5-yl)-3-(7-{[(4R)-4-ethyl-1,1-dioxido-8-(trifluoromethyl)-3,4-dihydro-2H-pyrido[2,3-b][1,4,5]oxathiazepin-2-yl]methyl}-2,3-dihydro-1H-inden-5-yl)propanoic acid] | 10 to 30 | > 5 | –
Cc1c(C(CC(=O)O)c2cc3c(c(CN4CC5(CCOCC5)Oc5ncccc5S4(=O)=O)c2)CCC3)ccc2c1nnn2C (stereo not shown) [Example 33, 3-(1,4-Dimethyl-1H-benzotriazol-5-yl)-3-{7-[(1,1′-dioxido-2,3,5,6-tetrahydrospiro[pyran-4,4′-pyrido[2,3-b][1,4,5]oxathiazepine]-2′(3′H)-yl)methyl]-2,3-dihydro-1H-inden-5-yl}propanoic acid] | 30 to 100 | – | –
CC[C@@H]1CN(Cc2cc(C(CC(=O)O)c3ccc4c(nnn4CCCS(C)(=O)=O)c3C)cc3ccsc23)S(=O)(=O)c2cc(Cl)cnc2O1 (stereo partly drawn) [Example 57, 3-(7-{[(4R)-8-Chloro-4-ethyl-1,1-dioxido-3,4-dihydro-2H-pyrido[2,3-b][1,4,5]oxathiazepin-2-yl]methyl}-1-benzothiophen-5-yl)-3-{4-methyl-1-[3-(methylsulfonyl)propyl]-1H-benzotriazol-5-yl}propanoic acid] | 10 to 30 | > 5 | –
CC[C@@H]1CN(Cc2cc([C@H](CC(=O)O)c3ccc4c(nnn4C)c3C)cc3c2CCC3)S(=O)(=O)c2cc(Cl)c(F)cc2O1 [Example 21, (3S)-3-(7-{[(4R)-8-Chloro-4-ethyl-7-fluoro-1,1-dioxido-3,4-dihydro-2H-5,1,2-benzoxathiazepin-2-yl]methyl}-2,3-dihydro-1H-inden-5-yl)-3-(1,4-dimethyl-1H-benzotriazol-5-yl)propanoic acid] | ≤ 10 | > 5 | –
CC[C@@H]1CN(Cc2cc([C@@H](CC(=O)O)c3cc(Cl)c4c(nnn4C)c3C)cc3c2CCC3)S(=O)(=O)c2cc(Cl)cnc2O1 [Example 97, (3R)-3-(7-Chloro-1,4-dimethyl-1H-benzotriazol-5-yl)-3-(7-{[(4R)-8-chloro-4-ethyl-1,1-dioxido-3,4-dihydro-2H-pyrido[2,3-b][1,4,5]oxathiazepin-2-yl]methyl}-2,3-dihydro-1H-inden-5-yl)propanoic acid] | ≤ 10 | > 5 | –
Cc1c([C@H](CC(=O)O)c2cc(CN3C[C@@H](C4CC4)Oc4ccc(O)nc4C3C)c3sccc3c2)cnc2c1nnn2C (single isomer, unassigned) [Example 86, (3R)-3-(7-{[(2R,5S*)-2-Cyclopropyl-7-hydroxy-5-methyl-2,3-dihydropyrido[2,3-f][1,4]oxazepin-4(5H)-yl]methyl}-1-benzothiophen-5-yl)-3-(3,7-dimethyl-3H-[1,2,3]triazolo[4,5-b]pyridin-6-yl)propanoic acid] | 30 to 100 | – | A (5<NQO1 activity ratio)
CC[C@@H]1CN(Cc2cc([C@@H](CC(=O)O)c3ccc4c(nnn4C)c3C)cc3ccsc23)C(C)c2nc(O)ccc2O1 (relative stereo) [Example 79, (3R)-3-(1,4-Dimethyl-1H-benzotriazol-5-yl)-3-(7-{[(2R,5R*)-2-ethyl-7-hydroxy-5-methyl-2,3-dihydropyrido[2,3-f][1,4]oxazepin-4(5H)-yl]methyl}-1-benzothiophen-5-yl)propanoic acid] | – | > 5 | –
CC[C@@H]1CN(Cc2cc(C(CC(=O)O)c3ccc4c(nnn4C)c3C)cc3c2CCC3)S(=O)(=O)c2ccc(Cl)cc2O1 (stereo partly drawn) [Example 15, 3-(7-{[(4R)-7-Chloro-4-ethyl-1,1-dioxido-3,4-dihydro-2H-5,1,2-benzoxathiazepin-2-yl]methyl}-2,3-dihydro-1H-inden-5-yl)-3-(1,4-dimethyl-1H-benzotriazol-5-yl)propanoic acid] | 30 to 100 | – | –
CC[C@@H]1CN(Cc2cc(C(CC(=O)O)c3cc(Cl)c4c(nnn4C)c3C)cc3c2CCC3)[C@@H](C)c2ncccc2O1 (single isomer, unassigned) [Example 72, (3S*)-3-(7-Chloro-1,4-dimethyl-1H-benzotriazol-5-yl)-3-(7-{[(2R,5S)-2-ethyl-5-methyl-2,3-dihydropyrido[2,3-f][1, 4]oxazepin-4(5H)-yl]methyl}-2,3-dihydro-1H-inden-5-yl)propanoic acid] | ≤ 10 | – | –
Cc1c(C(CC(=O)O)c2cc3c(c(CN4CC5(COC5)Oc5ncccc5S4(=O)=O)c2)CCC3)ccc2c1nnn2C (stereo not shown) [Example 36, 3-(1,4-Dimethyl-1H-benzotriazol-5-yl)-3-{7-[(1,1′-dioxido-spiro[oxetane-3,4′-pyrido[2,3-b][1,4,5]oxathiazepine]-2′ (3′H)-yl)methyl]-2,3-dihydro-1H-inden-5-yl}propanoic acid] | 10 to 30 | – | –
CC[C@@H]1CN(Cc2cc([C@H](CC(=O)O)c3ccc4c(nnn4C)c3C)cc3ccsc23)[C@@H](C)c2ncccc2O1 [Example 62, (3S)-3-(1,4-Dimethyl-1H-benzotriazol-5-yl)-3-(7-{[(2R,5S)-2-ethyl-5-methyl-2,3-dihydropyrido[2,3-f][1,4]oxazepin-4(5H)-yl]methyl}-1-benzothiophen-5-yl)propanoic acid] | 10 to 30 | – | –
Cc1c([C@H](CC(=O)O)c2cc(CN3C[C@@H](C4CC4)Oc4ccc(O)nc4C3C)c3sccc3c2)ccc2c1nnn2C (single isomer, unassigned) [Example 84, (3R)-3-(7-{[(2R,5R*)-2-Cyclopropyl-7-hydroxy-5-methyl-2,3-dihydropyrido[2,3-f][1,4]oxazepin-4(5H)-yl]methyl}-1-benzothiophen-5-yl)-3-(1,4-dimethyl-1H-benzotriazol-5-yl)propanoic acid] | 30 to 100 | – | –
CCC1c2ncccc2O[C@H](CC)CN1Cc1cc([C@H](CC(=O)O)c2ccc3c(nnn3C)c2C)cc2ccsc12 (single isomer, unassigned) [Example 77, (3S)-3-(7-{[(2R,5S*)-2,5-Diethyl-2,3-dihydropyrido[2,3-f][1,4]oxazepin-4(5H)-yl]methyl}-1-benzothiophen-5-yl)-3-(1,4-dimethyl-1H-benzotriazol-5-yl)propanoic acid] | ≤ 10 | – | –
Cc1c([C@H](CC(=O)O)c2cc(CN3CC4(CC4)Oc4ccc(O)nc4C3C)c3sccc3c2)ccc2c1nnn2C (single isomer, unassigned) [Example 87, (3R)-3-(1,4-Dimethyl-1H-benzotriazol-5-yl)-3-(7-{[(5′S*)-7′-hydroxy-5′-methyl-3′H-spiro[cyclopropane-1,2′-pyrido[2,3-f][1,4]oxazepin]-4′(5′H)-yl]methyl}-1-benzothiophen-5-yl)propanoic acid] | – | > 5 | –
CC[C@@H]1CN(Cc2cc([C@@H](CC(=O)O)c3cnc4c(nnn4C)c3C)cc3ccsc23)C(C)c2nc(O)ccc2O1 (single isomer, unassigned) [Example 81, (3R)-3-(3,7-Dimethyl-3H-[1,2,3]triazolo[4,5-b]pyridin-6-yl)-3-(7-{[(2R,5S*)-2-ethyl-7-hydroxy-5-methyl-2,3-dihydropyrido[2,3-f][1,4]oxazepin-4(5H)-yl]methyl}-1-benzothiophen-5-yl)propanoic acid] | – | 3 to 5 | –
Cc1c(C(CC(=O)O)c2cc3c(c(CN4CC5(CCC5)Oc5ncccc5S4(=O)=O)c2)CCC3)ccc2c1nnn2C (stereo not shown) [Example 35, 3-(1,4-Dimethyl-1H-benzotriazol-5-yl)-3-{7-[(1,1′-dioxido-spiro[cyclobutane-1,4′-pyrido[2,3-b][1,4,5]oxathiazepine]-2′(3′H)-yl)methyl]-2,3-dihydro-1H-inden-5-yl}propanoic acid] | 10 to 30 | – | –
